Source: patent US12692509B2, “Methods for generating new genes in organism and use thereof” (Qingdao Kingagroot Chemical Compound Co., Ltd., priority 2019, dated 2026)

Tests used:
wild-type Jinjing 818 [1] = assay: Herbicide resistance test at seedling stage, germination on 1/2 MS medium with herbicide: wild-type control; assay type: in vivo, rice; conditions: 1.2 μM in 1/2 MS medium, 10 days of cultivation in light
Description: (§1) The herbicide resistance of the T1 generation of the QY2091 HPPD doubled strain was tested at the seedling stage. After the T1 generation seeds were subjected to surface disinfection, they germinated on ½ MS medium containing 1.2 μM Shuangzuocaotong, and cultivated at 28° C., 16 hours light/8 hours dark, in which wild-type Jinjing 818 was used as a control.

[2] = tested on: QY2091 T0 generation HPPD gene doubling strain; assay: Herbicide resistance test, T0 generation, spray application: HPPD doubling strains; assay type: in vivo, rice; conditions: for phenotype of HPPD doubling event strains after application: 2, 4, 8 and 32 g a.i./mu
Description: (§2) The transformation seedlings of T0 generation identified as doubling event positive were transplanted into large plastic buckets in the greenhouse for expanding propagation to obtain seeds of T1 generation. After the seedlings began to tiller, the tillers were taken from vigorously growing strains, and planted in the same pots with the tillers of the wild-type control varieties at the same growth period. After the plant height reached about 20 cm, the herbicide resistance test was conducted. The herbicide used was Shuangzuocaotong (CAS No. 1622908-18-2) produced by our company, and its field dosage was usually 4 grams of active ingredients per mu (4 g a.i./mu). In this experiment, Shuangzuocaotong was applied at a dosage gradient of 2 g a.i./mu, 4 g a.i./mu, 8 g a.i./mu and 32 g a.i./muwith a walk-in spray tower.

[3] = tested on: T1 generation of the QY2091 HPPD doubled strain; assay: Herbicide resistance test at seedling stage, germination on 1/2 MS medium with herbicide: T1 of HPPD doubled strain; assay type: in vivo, rice; conditions: 1.2 μM in 1/2 MS medium, 10 days; lines QY2091-7, 13, 20, 22
Description: as §1

wild-type Jinjing 818 [4] = assay: Herbicide resistance test, T0 generation, spray application: wild-type control; assay type: in vivo, rice; conditions: 2, 4, 8 and 32 g a.i./mu
Description: as §2

[5] = tested on: QY2234 T0 generation PPO1 inversion strain; assay: PPO inhibitory herbicide resistance test, T0 generation, spray application: PPO1 inversion lines; assay type: in vivo, rice
Source text: (§3) Transformation seedlings of QY2234 T0 generation identified as inversion event-positive were transplanted into large plastic buckets in the greenhouse to grow seeds of T1 generation. There were a large number of positive seedlings, so some T0 seedlings and wild-type control lines with similar growth period and status were selected. When the plant height reached about 20 cm, the herbicide resistance test was directly carried out. The herbicide used was a high-efficiency PPO inhibitory herbicide [drawing 1] produced by the company (code 2081, see […] Patent Application for Invention No. 202010281666.4). In this experiment, the herbicide was applied at the gradients of three levels, namely 0.18, 0.4, and 0.6 g ai/mu, by a walk-in type spray tower.

wild-type Huaidao No. 5 [6] = assay: Herbicide resistance test of T1 generation seedlings, spraying: wild-type control; assay type: in vivo, rice; conditions: 5 days after application
Description: (§4) The herbicide resistance test was performed on the T1 generation of the QY2234/H5-851 PPO1 inversion lines at seedling stage. The wild-type Huaidao No. 5 was used as a control, and planted simultaneously with the T1 generation seeds of the inversion lines. When the seedlings reached a plant height of 15 cm, 2081 was applied by spraying at four levels of 0.3, 0.6, 0.9 and 1.2 g a.i./mu. The culture conditions were 28° C., with 16 hours of light and 8 hours of darkness.

[7] = tested on: QY2234/H5-851 T1 seedlings; assay: Herbicide resistance test of T1 generation seedlings, spraying: PPO1 inversion line; assay type: in vivo, rice; conditions: 5 days after application
Description: as §4

wild-type Huaidao No. 5 [8] = assay: PPO inhibitory herbicide resistance test, T0 generation, spray application: wild-type control; assay type: in vivo, rice; conditions: 0.18, 0.4 and 0.6 g ai/mu
Source text: as §3

[9] = tested on: Plants containing the new EPSPS gene; assay: Herbicide bioassay on plants containing the new EPSPS gene; assay type: in vivo; conditions: rice plants from Agrobacterium-transformed calli
Source text: These vectors were transferred into Agrobacterium for transforming calli of rice. Plants containing the new EPSPS gene were obtained.

[10] = T0 generation, versus wild type

With `Cc1nn(C)cc1C(=O)Oc1c(C(=O)c2ccc(C(F)(F)F)cc2S(C)(=O)=O)c(C)nn1C` [Shuangzuocaotong] the “phenotype of wild-type control rice seedlings” value (wild-type Jinjing 818 [1]) was “almost all albino”, the “phenotype of HPPD doubling event strains after application” value ([2]; 4 weeks after application) was “all continued to remain green and grew normally” and the “phenotype of HPPD doubling event strains after application” value ([2]; 5-7 days after application) was “all remained normally green”. For the same compound, the “tolerance of HPPD gene-doubled strains to the herbicide” value [2, 10] was “significantly improved tolerance”, the “resistance of plants to the HPPD inhibitory herbicide” value ([2]; T0 transformed seedlings, field dosage 4 g a.i./mu) was “up to 8 times the field dose” and the “phenotype of green T1 seedlings of HPPD doubling lines” value [3] was “continued to remain green and grew normally”. For the same compound, the “phenotype of wild-type rice seedlings after application” value (wild-type Jinjing 818 [4]; 4 weeks after application) was “close to death” and the “phenotype of wild-type control rice seedlings after application” value (wild-type Jinjing 818 [4]; 5-7 days after application, spray tower) was “began to show albino”.

`COC(=O)[C@@H](C)O/N=C/c1cc(-n2c(=O)cc(C(F)(F)F)n(C)c2=O)c(F)cc1Cl` [compound 2081] was tested, and the “phenotype of most lines of the PPO1 inversion event after application” value ([5]; 3-5 days after application, 0.18, 0.4 and 0.6 g ai/mu) was “maintained normal growth, the leaves had no obvious phytotoxicity”, the “tolerance of PPO1 inversion lines to the herbicide” value [5, 10] was “significantly improve the tolerance” and the “phenotype of most inversion event strains after application” value ([5]; two weeks after application, 0.18, 0.4 and 0.6 g ai/mu) was “continued to remain green and grew normally”. The “phytotoxicity on wild-type control rice seedlings” value (wild-type Huaidao No. 5 [6]; 0.3 g a.i./mu) was “obvious phytotoxicity”, the “phytotoxicity on wild-type control” value (wild-type Huaidao No. 5 [6]; 0.6 and 0.9 g ai/mu) was “substantially died off” and the “phytotoxicity on wild-type control rice seedlings” value (wild-type Huaidao No. 5 [6]; 0.6 g a.i./mu) was “the plants died quickly”. The “phytotoxicity on wild-type control plants” value (wild-type Huaidao No. 5 [6]; 1.2 g a.i./mu) was “all dead”, the “phytotoxicity on QY2234/H5-851 T1 seedlings” value ([7]; 0.3 g a.i./mu) was “maintain normal growth” and the “phytotoxicity on QY2234/H5-851 T1 seedlings” value ([7]; 0.6 and 0.9 g ai/mu) was “most T1 seedlings could keep green and continue to grow”. The “phytotoxicity on QY2234/H5-851 T1 seedlings” value ([7]; 1.2 g a.i./mu) was “some of the T1 seedlings could keep green and continue to grow”, the “phenotype of wild-type control rice seedlings after application” value (wild-type Huaidao No. 5 [8]; 3-5 days after application) was “began to wither from tip of leaf, necrotic spots appeared on the leaves, and the plants gradually withered” and the “phenotype of wild-type rice seedlings after application” value (wild-type Huaidao No. 5 [8]; two weeks after application) was “died”.

For `O=C(O)CNCP(=O)(O)O` [glyphosate], the “resistance of plants containing the new EPSPS gene to the herbicide” value [9] was “obvious resistance”.
